Test results reported in PMC9869995, “Discovery of benzochromene derivatives first example with dual cytotoxic activity against the resistant cancer cell MCF-7/ADR and inhibitory effect of the P-glycoprotein expression levels” (Journal of Enzyme Inhibition and Medicinal Chemistry, 2023).

Tests used:
[1] = test system: HepG-2; assay: MTT cell viability assay, HepG-2; type: cell-based; conditions: Homo sapiens, HepG2, 24 h incubation, mean ± standard error
Text: (§1) According to previous reports regarding the cytotoxic features of a numerous array of benzochromene scaffolds, compounds 4a − z have been elected to explore their cytotoxic ability against three tumour cell lines, including HCT-116 (colon cancer), MCF-7 (breast cancer), and HepG-2 (hepatocellular cancer), and employing the 3–(4,5-dimethylthiazol-2-yl)-2,5-diphenyl tetrazolium bromide (MTT) colorimetric assay as described in literature. Judges choice of such cell lines has been stimulated by the acknowledged antitumor performance of a substantial number of 1H-benzo[f]chromene and 4H-benzo[h]chromene molecules towards the asserted cell lines. […] Moreover, benzochromene derivatives with highly cytotoxic behaviour, 4a − d, 4g, 4i, 4k, 4n, 4q, 4 u, and 4w, are subjected to further inspection against ADR-resistant human breast cancer cells (MCF-7/ADR) and the two normal cell lines, HFL-1 and human diploid fibroblasts (WI-38). […] Also, the results are illustrated in Table 4.
(§2) The tumour cell lines MCF-7, HepG-2, and […] were obtained from the American Type Culture Collection (ATCC, Rockville, MD). The cells were grown on RPMI-1640 medium supplemented with 10% inactivated foetal calf serum and 50 µg/mL gentamycin. The cells were maintained at 37 °C in a humidified atmosphere with 5% CO2 and were subculture two to three times a week.
(§3) The cytotoxic activity was appraised, using the 3–(4,5-dimethylthiazol-2-yl)-2,5-diphenyl-tetrazolium bromide (MTT) colorimetric assay, as reported previously[57] and ELISA assay for MCF-7/ADR[75].

[2] = test system: WI-38; assay: Cytotoxicity against normal cell line WI-38; type: cell-based; conditions: Homo sapiens, 24 h, mean ± standard error
Text: as §1, §3

[3] = test system: HFL-1; assay: Cytotoxicity against normal cell line HFL-1; type: cell-based; conditions: Homo sapiens, HFL1, 24 h, mean ± standard error
Text: as §1, §3

[4] = test system: MCF-7/ADR; assay: Cytotoxicity against ADR-resistant breast cancer cells; type: cell-based, human; conditions: 24 h exposure, mean ± standard error
Text: as §1, §3

[5] = test system: HCT-116; assay: MTT cell viability assay, HCT-116; type: cell-based; conditions: Homo sapiens, 24 h incubation, mean ± standard error
Text: as §1, §3

[6] = test system: MCF-7; assay: MTT cell viability assay, MCF-7; type: cell-based; conditions: Homo sapiens, MCF7, 24 h incubation, mean ± standard error
Text: as §1, §2, §3

[7] = Homo sapiens, NCI/ADR-RES, 24 h

Compound | melting point [°C] | IC50 [5] [µM] | IC50 [6] [µM] | IC50 [1] [µM] | IC50 [2] [µM] | IC50 [3] [µM] | IC50 [4, 7] [µM] | IC50 [4] [µM]
COc1ccc2ccc3c(c2c1)C(c1ccc(F)cc1)C(C#N)=C(N)O3 (centres unmarked) [4a, 3-Amino-1–(4-fluorophenyl)-9-methoxy-1H-benzo[f]chromene-2-carbonitrile] | 267 to 268 | 6.4 ± 0.1 | 16.5 ± 0.1 | 11.3 ± 0.1 | 56.7 ± 1.1 | 45.1 ± 0.2 | 24.4 ± 1.2 | –
COc1ccc2ccc3c(c2c1)C(c1ccc(Br)cc1)C(C#N)=C(N)O3 (centres unmarked) [4g, 3-Amino-1–(4-bromophenyl)-9-methoxy-1H-benzo[f]chromene-2-carbonitrile] | 252 to 253 | 2.2 ± 0.1 | 5.6 ± 0.1 | 2 ± 0.1 | 69 ± 1.1 | 65.3 ± 0.1 | 19.6 ± 1 | –
COc1ccc2ccc3c(c2c1)C(c1ccc(I)cc1)C(C#N)=C(N)O3 (centres unmarked) [4h, 3-Amino-1–(4-iodophenyl)-9-methoxy-1H-benzo[f]chromene-2-carbonitrile] | 227 to 228 | 27.7 ± 0.3 | 48.4 ± 0.1 | 39.2 ± 0.2 | – | – | – | –
COc1ccc2ccc3c(c2c1)C(c1ccc(C(F)(F)F)cc1)C(C#N)=C(N)O3 (centres unmarked) [4j, 3-Amino-1–(4-trifluoromethylphenyl)-9-methoxy-1H-benzo[f]chromene-2-carbonitrile] | 212 to 214 | 20.2 ± 1.1 | 26.8 ± 1.8 | 5.3 ± 0.1 | – | – | – | –
COc1ccc2ccc3c(c2c1)C(c1c(F)cccc1F)C(C#N)=C(N)O3 (centres unmarked) [4l, 3-Amino-1–(2,6-difluorophenyl)-9-methoxy-1H-benzo[f]chromene-2-carbonitrile] | 305 to 306 | 77.7 ± 0.3 | 15.4 ± 0.2 | 28.5 ± 0.4 | – | – | – | –
COc1ccc2ccc3c(c2c1)C(c1ccc(Cl)cc1Cl)C(C#N)=C(N)O3 (centres unmarked) [4n, 3-Amino-1–(2,4-dichlorophenyl)-9-methoxy-1H-benzo[f]chromene-2-carbonitrile] | 261 to 262 | 1.7 ± 0.2 | 1.8 ± 0.1 | 7.3 ± 0.2 | 61.9 ± 0.3 | 71.7 ± 0.1 | 10.9 to 15.5 | 15.5 ± 0.2
COc1ccc2ccc3c(c2c1)C(c1cc(Br)cc(Br)c1)C(C#N)=C(N)O3 (centres unmarked) [4s, 3-Amino-1–(3,5-dibromophenyl)-9-methoxy-1H-benzo[f]chromene-2-carbonitrile] | 268 to 270 | 15 ± 2.6 | 13.6 ± 0.2 | 13.4 ± 1.1 | – | – | – | –
COc1ccc2ccc3c(c2c1)C(c1c(F)cccc1Cl)C(C#N)=C(N)O3 (centres unmarked) [4t, 3-Amino-1–(2-chloro-6-fulorophenyl)-9-methoxy-1H-benzo[f]chromene-2-carbonitrile] | 292 to 294 | 96.5 ± 2 | 100 ± 1.3 | 48.1 ± 1.3 | – | – | – | –
COc1ccc2ccc3c(c2c1)C(c1ccc(C(F)(F)F)cc1F)C(C#N)=C(N)O3 (centres unmarked) [4u] | 237 to 239 | 14.7 ± 2.3 | 0.2 | 10.6 ± 0.9 | 60.3 ± 0.1 | 55.3 ± 0.1 | 19.7 ± 0.8 | –
COc1ccc2ccc3c(c2c1)C(c1ccc(OC)c(OC)c1OC)C(C#N)=C(N)O3 (centres unmarked) [4x, 3-Amino-1–(2,3,4-trimethoxyphenyl)-9-methoxy-1H-benzo[f]chromene-2-carbonitrile] | 239 to 240 | 36.6 ± 0.1 | 96.1 ± 0.6 | 59.7 ± 0.3 | – | – | – | –
COc1ccc2ccc3c(c2c1)C(c1cc(OC)c(OC)c(OC)c1)C(C#N)=C(N)O3 (centres unmarked) [4y, 3-Amino-1–(3,4,5-trimethoxyphenyl)-9-methoxy-1H-benzo[f]chromene-2-carbonitrile] | 260 to 261 | 15.4 ± 0.1 | 26.1 ± 0.1 | 8.8 ± 0.2 | 29.9 ± 0.4 | 34.1 ± 0.2 | – | –
COc1ccc2ccc3c(c2c1)C(c1cc(Br)cc(Br)c1OC)C(C#N)=C(N)O3 (centres unmarked) [4z, 3-Amino-1–(3,5-dibromo-2-methoxyphenyl)-9-methoxy-1H-benzo[f]chromene-2-carbonitrile] | 263 to 264 | 6.8 ± 0.1 | 5.8 ± 0.04 | 3.5 ± 0.2 | 39.6 ± 0.4 | 33.3 ± 0.1 | – | –
CC[C@]1(O)C[C@@H]2CN(CCc3c([nH]c4ccccc34)[C@@](C(=O)OC)(c3cc4c(cc3OC)N(C)[C@H]3[C@@](O)(C(=O)OC)[C@H](OC(C)=O)[C@]5(CC)C=CCN6CC[C@]43[C@@H]65)C2)C1 [Vinblastine, reference compound] | – | 3.2 ± 0.1 | 7.5 ± 0.03 | 5.7 ± 0.1 | – | – | – | –

More lines, main results first:

melting point [°C] | IC50 [5] [µM] | IC50 [6] [µM] | Compound | IC50 [1] [µM] | IC50 [2] [µM] | IC50 [3] [µM] | IC50 [4, 7] [µM] | IC50 [4] [µM]
273 to 275 | 5.9 ± 0.4 | 8.3 ± 0.6 | COc1ccc2ccc3c(c2c1)C(c1ccccc1Br)C(C#N)=C(N)O3 (centres unmarked) [4e, 3-Amino-1–(2-bromophenyl)-9-methoxy-1H-benzo[f]chromene-2-carbonitrile] | 4.9 ± 0.2 | 59.1 ± 1.1 | 49.5 ± 1.1 | – | –
263 to 265 | 11.5 ± 1.1 | 69.2 ± 0.3 | COc1ccc2ccc3c(c2c1)C(c1cccc(Br)c1)C(C#N)=C(N)O3 (centres unmarked) [4f, 3-Amino-1–(3-bromophenyl)-9-methoxy-1H-benzo[f]chromene-2-carbonitrile] | 63.6 ± 3.2 | – | – | – | –
245 to 246 | 2.9 ± 0.1 | 7 ± 0.1 | COc1ccc2ccc3c(c2c1)C(c1ccc(C)cc1)C(C#N)=C(N)O3 (centres unmarked) [4i, 3-Amino-1–(4-methylphenyl)-9-methoxy-1H-benzo[f]chromene-2-carbonitrile] | 8.8 ± 0.2 | 61.7 ± 0.1 | 71.6 ± 0.3 | 42.8 ± 2.4 | –
310 to 311 | 42 ± 0.2 | 9.1 ± 0.2 | COc1ccc2ccc3c(c2c1)C(c1cccc(Cl)c1Cl)C(C#N)=C(N)O3 (centres unmarked) [4m, 3-Amino-1–(2,3-dichlorophenyl)-9-methoxy-1H-benzo[f]chromene-2-carbonitrile] | 11.8 ± 0.2 | – | – | – | –
268 to 269 | 8.3 ± 0.2 | 3.8 ± 0.3 | COc1ccc2ccc3c(c2c1)C(c1cc(Cl)ccc1Cl)C(C#N)=C(N)O3 (centres unmarked) [4o, 3-Amino-1–(2,5-dichlorophenyl)-9-methoxy-1H-benzo[f]chromene-2-carbonitrile] | 46.6 ± 0.1 | – | – | – | –
321 to 322 | 18.9 ± 0.2 | 41.5 ± 0.1 | COc1ccc2ccc3c(c2c1)C(c1c(Cl)cccc1Cl)C(C#N)=C(N)O3 (centres unmarked) [4p, 3-Amino-1–(2,6-dichlorophenyl)-9-methoxy-1H-benzo[f]chromene-2-carbonitrile] | 25.9 ± 0.3 | – | – | – | –
260 to 262 | 5.3 ± 0.4 | 4.9 ± 0.5 | COc1ccc2ccc3c(c2c1)C(c1cc(Br)ccc1Br)C(C#N)=C(N)O3 (centres unmarked) [4r, 3-Amino-1–(2,5-dibromophenyl)-9-methoxy-1H-benzo[f]chromene-2-carbonitrile] | 6.8 ± 0.5 | 33.9 ± 0.4 | 38.1 ± 0.2 | – | –
218 to 220 | 49.9 ± 0.5 | 100 ± 0.2 | COc1ccc(C2C(C#N)=C(N)Oc3ccc4ccc(OC)cc4c32)c(OC)c1 (centres unmarked) [4v, 3-Amino-1–(2,4-dimethoxyphenyl)-9-methoxy-1H-benzo[f]chromene-2-carbonitrile] | 93.2 ± 0.2 | – | – | – | –
